In ChEMBL document CHEMBL1799965, “Synthesis of useful fragments in drug discovery: 2-Amino-5-tert-butylpyridine and its oxidised analogues” (Bioorg Med Chem Lett, 2011):
≈ marks a conversion by molar mass, not a printed value.

Key:
[1] = Membrane affinity to immobilized artificial membrane by HPLC method; assay type: physicochemical
[2] = Solubility of the compound in simulated fasted intestinal fluid; assay type: physicochemical; conditions: simulated gi fluid
[3] = Solubility of the compound in buffer at pH 6.8; assay type: physicochemical
Albumin = Albumin (Homo sapiens, UniProt P02768); test: Binding affinity to human serum albumin by HPLC method
Albumin, sequence (P02768 whole entry): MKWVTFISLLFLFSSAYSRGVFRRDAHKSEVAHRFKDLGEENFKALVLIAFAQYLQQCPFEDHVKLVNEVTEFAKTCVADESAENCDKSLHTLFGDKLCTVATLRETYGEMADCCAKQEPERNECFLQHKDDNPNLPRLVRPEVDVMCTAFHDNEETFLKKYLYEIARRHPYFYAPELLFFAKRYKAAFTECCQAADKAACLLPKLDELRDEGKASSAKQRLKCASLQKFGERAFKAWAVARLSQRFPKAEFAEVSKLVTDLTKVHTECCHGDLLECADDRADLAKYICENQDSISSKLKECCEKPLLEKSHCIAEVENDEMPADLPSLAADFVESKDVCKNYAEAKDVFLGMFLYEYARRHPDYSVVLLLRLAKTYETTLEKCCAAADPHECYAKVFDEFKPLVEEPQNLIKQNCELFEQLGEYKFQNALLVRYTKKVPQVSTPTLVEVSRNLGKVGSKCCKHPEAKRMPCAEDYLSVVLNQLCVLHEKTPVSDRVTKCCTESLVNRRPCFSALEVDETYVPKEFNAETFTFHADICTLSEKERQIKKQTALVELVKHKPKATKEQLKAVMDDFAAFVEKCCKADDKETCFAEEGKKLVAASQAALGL

[4] = Lipophilicity, Log D of the compound by HPLC method; assay type: physicochemical

CHI [1] | solubility [2] [µM] | solubility [3] [µM] | Activity (Albumin) [%] | logD [4] | Structure (SMILES)
35.5 | < 5 | < 5 | 78.5 | 2.83 | CC(C)(C)c1ccc(N)cc1
33 | 72 (≈ 10.8 µg/mL) | 59 (≈ 8.86 µg/mL) | 38.9 | 1.53 | CC(C)(C)c1ccc(N)nc1
